System: Bmi-1
Experiment: Sandwich ELISA Assay (Bmi-1 ELISA in HT-1080 cells)
Format: cell-based, human
Summary of the method: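 HT-1080 cells (8000/well) were treated with compounds in 0.5% final DMSO for 40-48 h at 37°C and then lysed. Bmi-1 in lysates was measured by sandwich ELISA: overnight capture at 4°C on mouse monoclonal, rabbit anti-Bmi-1 detection, HRP anti-rabbit, TMB. OD450 was read with an OD570 reference against a recombinant GST-Bmi-1 standard curve (0-8000 pg/mL).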

Structure (SMILES) | IC50 [nM]
Cc1nc2ccccn2c1-c1csc(Nc2ccc(Cl)c(Cl)c2)n1 [Cpd 198, N-(3,4-dichlorophenyl)-4-(2-methylimidazo[1,2-a]pyridin-3-yl)-1,3-thiazol-2-amine] | < 500
Cc1nc2ccccn2c1-c1csc(Nc2ccc(O)cc2)n1 [Cpd 36, 4-{[4-(2-methylimidazo[1,2-a]pyridin-3-yl)-1,3-thiazol-2-yl]amino}phenol] | < 500
Cc1nc2ccc(Cl)cn2c1-c1csc(Nc2ccccc2)n1 [Cpd 133, 4-(6-chloro-2-methylimidazo[1,2-a]pyridin-3-yl)-N-phenyl-1,3-thiazol-2-amine] | < 500
Cc1ccc(Nc2nc(-c3c(C)nc4ccccn34)cs2)cc1 [Cpd 191, 4-(2-methylimidazo[1,2-a]pyridin-3-yl)-N-(4-methylphenyl)-1,3-thiazol-2-amine] | < 500
Cc1nc2ccc(F)cn2c1-c1csc(Nc2ccc3c(c2)OCO3)n1 [Cpd 158, N-(1,3-benzodioxol-5-yl)-4-(6-fluoro-2-methylimidazo[1,2-a]pyridin-3-yl)-1,3-thiazol-2-amine] | < 500
CCCc1nc2ccccn2c1-c1csc(Nc2ccc(Br)cc2)n1 [Cpd 179, N-(4-bromophenyl)-4-(2-propylimidazo[1,2-a]pyridin-3-yl)-1,3-thiazol-2-amine] | < 500
Cc1nc2ncccn2c1-c1ccnc(Nc2ccc(N(C)C)cc2)n1 [Cpd 43, N,N-dimethyl-N′-[4-(2-methylimidazo[1,2-a]pyrimidin-3-yl)pyrimidin-2-yl]benzene-1,4-diamine] | < 500
Cc1ccc(N(C)c2nccc(-c3c(C)nc4ncccn34)n2)cc1 [Cpd 170, N-methyl-4-(2-methylimidazo[1,2-a]pyrimidin-3-yl)-N-(4-methylphenyl)pyrimidin-2-amine] | < 500
COc1ccc(Nc2nc(-c3c(C)nc4c(C)cccn34)cs2)cc1 [Cpd 222, 4-(2,8-dimethylimidazo[1,2-a]pyridin-3-yl)-N-(4-methoxyphenyl)-1,3-thiazol-2-amine] | < 500
Cc1nc2ccccn2c1-c1ccnc(N(C)c2ccc(I)cc2)n1 [Cpd 143, N-(4-iodophenyl)-N-methyl-4-(2-methylimidazo[1,2-a]pyridin-3-yl)pyrimidin-2-amine] | 500 to 1000
CCCc1nc2ncccn2c1-c1csc(Nc2ccc(Br)cc2)n1 [Cpd 184, N-(4-bromophenyl)-4-(2-propylimidazo[1,2-a]pyrimidin-3-yl)-1,3-thiazol-2-amine] | < 500
Cc1nc2c(Br)cccn2c1-c1csc(Nc2ccc(N(C)C)cc2)n1 [Cpd 227, N′-[4-(8-bromo-2-methylimidazo[1,2-a]pyridin-3-yl)-1,3-thiazol-2-yl]-N,N-dimethylbenzene-1,4-diamine] | < 500
Cc1nc2ncccn2c1-c1csc(N(C)c2ccc(Br)cc2)n1 [Cpd 80, N-(4-bromophenyl)-N-methyl-4-(2-methylimidazo[1,2-a]pyrimidin-3-yl)-1,3-thiazol-2-amine] | < 500
CCCc1nc2ncccn2c1-c1csc(Nc2ccc(OC)c(F)c2)n1 [Cpd 181, N-(3-fluoro-4-methoxyphenyl)-4-(2-propylimidazo[1,2-a]pyrimidin-3-yl)-1,3-thiazol-2-amine] | < 500
Cc1nc2ccccn2c1-c1ccnc(N(C)c2ccc(N(C)C)cc2)n1 [Cpd 137, N,N,N′-trimethyl-N′-[4-(2-methylimidazo[1,2-a]pyridin-3-yl)pyrimidin-2-yl]benzene-1,4-diamine] | < 500
Cc1nc2c(Cl)cc(Cl)cn2c1-c1csc(Nc2ccc3c(c2)OCO3)n1 [Cpd 220, N-(1,3-benzodioxol-5-yl)-4-(6,8-dichloro-2-methylimidazo[1,2-a]pyridin-3-yl)-1,3-thiazol-2-amine] | < 500
COc1ccc(Nc2nc(-c3c(C)nc4cc(Cl)ccn34)cs2)cc1 [Cpd 241, 4-(7-chloro-2-methylimidazo[1,2-a]pyridin-3-yl)-N-(4-methoxyphenyl)-1,3-thiazol-2-amine] | < 500
Fc1ccccc1Nc1nccc(-c2cnc3ncccn23)n1 [Cpd 266, N-(2-fluorophenyl)-4-(imidazo[1,2-a]pyrimidin-3-yl)pyrimidin-2-amine] | < 500
Cc1nc2ccccn2c1-c1csc(Nc2ccc3c(c2)OCO3)n1 [Cpd 56, N-(1,3-benzodioxol-5-yl)-4-(2-methylimidazo[1,2-a]pyridin-3-yl)-1,3-thiazol-2-amine] | < 500
CC(=O)c1ccc(Nc2nc(-c3c(C)nc4ccccn34)cs2)cc1 [Cpd 55, 1-(4-{[4-(2-methylimidazo[1,2-a]pyridin-3-yl)-1,3-thiazol-2-yl]amino}phenyl)ethanone] | < 500
COc1ccc(Nc2nc(-c3c(C)nc4ccc(C)cn34)cs2)cc1Cl [Cpd 73, N-(3-chloro-4-methoxyphenyl)-4-(2,6-dimethylimidazo[1,2-a]pyridin-3-yl)-1,3-thiazol-2-amine] | < 500
Cc1ccn2c(-c3csc(Nc4ccc5c(c4)OCO5)n3)c(C)nc2c1 [Cpd 63, N-(1,3-benzodioxol-5-yl)-4-(2,7-dimethylimidazo[1,2-a]pyridin-3-yl)-1,3-thiazol-2-amine] | < 500
COc1ccc(Nc2nc(-c3c(C)nc4ccccn34)cs2)cc1 [Cpd 44, N-(4-methoxyphenyl)-4-(2-methylimidazo[1,2-a]pyridin-3-yl)-1,3-thiazol-2-amine] | < 500
Cc1nc2ccccn2c1-c1csc(Nc2ccc(N(C)C)cc2)n1 [Cpd 41, N,N-dimethyl-N′-[4-(2-methylimidazo[1,2-a]pyridin-3-yl)-1,3-thiazol-2-yl]benzene-1,4-diamine] | < 500
CCCc1nc2ccccn2c1-c1csc(Nc2ccc(N(C)C)cc2)n1 [Cpd 176, N,N-dimethyl-N′-[4-(2-propylimidazo[1,2-a]pyridin-3-yl)-1,3-thiazol-2-yl]benzene-1,4-diamine] | < 500

Continued, values first:

IC50 [nM] | Structure (SMILES)
< 500 | Cc1nc2ccc(F)cn2c1-c1csc(Nc2ccc(Br)cc2Cl)n1 [Cpd 165, N-(4-bromo-2-chlorophenyl)-4-(6-fluoro-2-methylimidazo[1,2-a]pyridin-3-yl)-1,3-thiazol-2-amine]
< 500 | Cc1nc2c(C)cccn2c1-c1csc(Nc2ccc3c(c2)OCO3)n1 [Cpd 226, N-(1,3-benzodioxol-5-yl)-4-(2,8-dimethylimidazo[1,2-a]pyridin-3-yl)-1,3-thiazol-2-amine]
< 500 | Cc1nc2ccccn2c1-c1ccnc(Nc2ccc(N(C)C)cc2)n1 [Cpd 129, N,N-dimethyl-N′-[4-(2-methylimidazo[1,2-a]pyridin-3-yl)pyrimidin-2-yl]benzene-1,4-diamine]
< 500 | COc1ccc(Nc2nc(-c3c(C)nc4ccc(Cl)cn34)cs2)cc1Cl [Cpd 95, N-(3-chloro-4-methoxyphenyl)-4-(6-chloro-2-methylimidazo[1,2-a]pyridin-3-yl)-1,3-thiazol-2-amine]
< 500 | Cc1ccc(Nc2nccc(-c3c(C)nc4ncccn34)n2)cc1 [Cpd 168, 4-(2-methylimidazo[1,2-a]pyrimidin-3-yl)-N-(4-methylphenyl)pyrimidin-2-amine]
< 500 | Cc1nc2cc(Cl)ccn2c1-c1csc(Nc2ccc(Cl)cc2)n1 [Cpd 240, 4-(7-chloro-2-methylimidazo[1,2-a]pyridin-3-yl)-N-(4-chlorophenyl)-1,3-thiazol-2-amine]
< 500 | Cc1nc2ncccn2c1-c1csc(Nc2c(Cl)cccc2Cl)n1 [Cpd 38, N-(2,6-dichlorophenyl)-4-(2-methylimidazo[1,2-a]pyrimidin-3-yl)-1,3-thiazol-2-amine]
< 500 | CC(=O)c1ccc(Nc2nccc(-c3cnc4ccccn34)n2)cc1 [Cpd 250, 1-(4-{[4-(imidazo[1,2-a]pyridin-3-yl)pyrimidin-2-yl]amino}phenyl)ethanone]
< 500 | CCCc1nc2ccccn2c1-c1csc(Nc2ccc(OC)cc2)n1 [Cpd 180, N-(4-methoxyphenyl)-4-(2-propylimidazo[1,2-a]pyridin-3-yl)-1,3-thiazol-2-amine]
< 500 | COc1ccc(Nc2nc(-c3c(C)nc4ccc(Cl)cn34)cs2)cc1 [Cpd 59, 4-(6-chloro-2-methylimidazo[1,2-a]pyridin-3-yl)-N-(4-methoxyphenyl)-1,3-thiazol-2-amine]
< 500 | Clc1ccc2ncc(-c3csc(Nc4ccc(I)cc4)n3)n2c1 [Cpd 108, 4-(6-chloroimidazo[1,2-a]pyridin-3-yl)-N-(4-iodophenyl)-1,3-thiazol-2-amine]
< 500 | Cc1ccc2nc(C)c(-c3csc(Nc4ccc(Br)cc4)n3)n2c1 [Cpd 77, N-(4-bromophenyl)-4-(2,6-dimethylimidazo[1,2-a]pyridin-3-yl)-1,3-thiazol-2-amine]
< 500 | Cc1nc2c(C)cccn2c1-c1csc(Nc2ccc(Cl)cc2)n1 [Cpd 224, N-(4-chlorophenyl)-4-(2,8-dimethylimidazo[1,2-a]pyridin-3-yl)-1,3-thiazol-2-amine]
< 500 | Cc1nc2ncccn2c1-c1ccnc(Nc2ccc(I)cc2)n1 [Cpd 120, N-(4-iodophenyl)-4-(2-methylimidazo[1,2-a]pyrimidin-3-yl)pyrimidin-2-amine]
< 500 | Cc1nc2ccc(Br)cn2c1-c1csc(Nc2ccc(I)cc2)n1 [Cpd 101, 4-(6-bromo-2-methylimidazo[1,2-a]pyridin-3-yl)-N-(4-iodophenyl)-1,3-thiazol-2-amine]
< 500 | CCN(CC)c1ccc(Nc2nccc(-c3cnc4ccccn34)n2)cc1 [Cpd 253, N,N-diethyl-N′-[4-(imidazo[1,2-a]pyridin-3-yl)pyrimidin-2-yl]benzene-1,4-diamine]
< 500 | CC(=O)c1ccc(Nc2nc(-c3c(C)nc4ccc(Cl)cn34)cs2)cc1 [Cpd 62, 1-(4-{[4-(6-chloro-2-methylimidazo[1,2-a]pyridin-3-yl)-1,3-thiazol-2-yl]amino}phenyl)ethanone]
< 500 | CCc1nc2ncccn2c1-c1csc(Nc2ccc(Cl)cc2)n1 [Cpd 147, N-(4-chlorophenyl)-4-(2-ethylimidazo[1,2-a]pyrimidin-3-yl)-1,3-thiazol-2-amine]

Source: patent publication US8680113B2, “BMI-1 protein expression modulators” (PTC Therapeutics, Inc., priority 2008, dated 2014)
